IC50, ED50 and Ki data for 20 compounds are collected here from US5658939A, “Methionine sulfone and S-substituted cysteine sulfone derivatives as enzyme inhibitors” (Corvas International Inc., priority 1995, dated 1997).

A value given as a limit tells only on which side of the number the result lay.

For assay [1], the target named is Purified human alpha-thrombin (Homo sapiens, UniProt P00734). Nature of the assay: in vitro thrombin inhibition assay, IC50 (chromogenic substrate Pefachrome t-PA). The assay is classed as biochemical. The settings on record: Table 1; 0.25 nM thrombin, 300 μM substrate, pH 7.5, 30 minute incubation. As for the experimental part: (§1) The ability of the compounds of the present invention to act as inhibitors of thrombin and plasmin catalytic activity was assessed by determining the concentration which inhibited enzyme activity by 50%, (IC50), using the purified human enzymes.
(§2) The buffer used for all assays was HBSA (10 mM HEPES, pH 7.5, 150 mM sodium chloride, 0.1% bovine serum albumin).
(§3) The assay for IC50 determinations was conducted by combining in appropriate wells of a Corning microtiter plate, 50 microliters of HBSA, 50 microliters of the test compound at a specified concentration (covering a broad concentration range) diluted in HBSA (or HBSA alone for Vo (uninhibited velocity) measurement), and 50 microliters of the enzyme diluted in HBSA. Following a 30 minute incubation at ambient temperature, 50 microliters of the substrate at the concentrations specified below, was added to the wells yielding a final total volume of 200 microliters. The initial velocity of chromogenic substrate hydrolysis was measured by the change in absorbance at 405 nm using a Thermo Max® Kinetic Microplate Reader over a 5 minute period in which less than 5% of the added substrate was utilized. The concentration of added inhibitor which caused a 50% decrease in the initial rate of hydrolysis was defined as the IC50 value.
Thrombin catalytic activity was determined using the chromogenic substrate Pefachrome t-PA (CH3 SO2 -D-hexahydrotyrosine-glycyl-L-arginine-p-nitroaniline, obtained from Pentapharm Ltd.). The substrate was made up in deionized water followed by dilution in HBSA prior to the assay in which the final concentration was 300 μM (about 10-times Km). Purified human alpha-thrombin was obtained from Enzyme Research Laboratories, Inc. The enzyme was diluted into HBSA prior to the assay in which the final concentration was 0.25 nM.

Assay [2] concerns the target Purified human plasmin (Homo sapiens, UniProt P00747). Description: in vitro plasmin inhibition assay, IC50 (chromogenic substrate S-2251). Particulars: Table 1; 1.0 nM plasmin, 300 μM substrate, pH 7.5, 30 minute incubation. The assay is classed as biochemical. As for the experimental part:
as §1, §2, §3
Plasmin catalytic activity was determined using the chromogenic substrate, S-2251 [D-valyl-L-leucyl-L-lysine-p-nirtoanilide dihydrochloride], which was obtained from Kabi Diagnostica. The substrate was made up in deionized water followed by dilution in HBSA prior to the assay in which the final concentration was 300 μM (about 5-times Km). Purified human plasmin was obtained from Enzyme Research Laboratories, Inc. The enzyme was diluted into HBSA prior to assay in which the final concentration was 1.0 nM.

In assay [3] the test system is rat carotid artery. Nature of the assay: Rat model of FeCl3-induced platelet-dependent arterial thrombosis. The assay is classed as in vivo, rat (Male Harlan Sprague Dawley). The settings on record: dose that prevents the incidence of complete thrombotic occlusion in 50% of animals tested; FeCl3 model, rat; read-out: ED50 for thrombus prevention.
Text: In this model a platelet-rich, occlusive thrombus is formed in a segment of the rat carotid artery treated locally with a fresh solution of FeCl3 absorbed to a piece of filter paper. The FeCl3 is thought to diffuse into the treated segment of artery and causes de-endothelialization of the affected vessel surface. […] The effect of a test compound on the incidence of occlusive thrombus formation following the application of the FeCl3 is monitored by ultrasonic flowtometry and is used as the primary end point. […] Male Harlan Sprague Dawley rats (420-450 g) were acclimated at least 72 hours prior to use and fasted for 12 hours prior to surgery with free access to water. The animals were prepared, anesthetized with Nembutal followed by the insertion of catheters for blood pressure monitoring, drug and anesthesia delivery. The left carotid artery was isolated by making a midline cervical incision followed by blunt dissection and spreading techniques to separate a 2 cm segment of the vessel from the carotid sheath. A silk suture was inserted under the proximal and distal ends of the isolated vessel to provide clearance for the placement of a ultrasonic flow probe (Transonic) around the proximal end of the vessel. The probe was then secured with a stationary arm. […] The test compound was administered as a single intravenous bolus at the doses outlined in Table 3 after placement of the flow probe and 5 minutes prior to the application of the FeCl3 thrombogenic stimulus (t=0). […] Blood pressure, blood flow, heart rate, and respiration were monitored for 60 minutes. The incidence of occlusion (defined as the attainment of zero blood flow) was recorded as the primary end point.
Assay [4] has as its target human alpha-thrombin (Homo sapiens, UniProt P00734). Description: Determination of inhibition constant Ki for thrombin (steady state velocities, Pefachrome t-PA). Particulars: Table 2; human alpha-thrombin 0.5 nM, steady state velocities over 40 minutes; read-out: Inhibitor Constants (Ki). In kind it is biochemical. As for the experimental part: The ability of the compounds of the present invention to act as inhibitors of thrombin catalytic activity was assessed by determining their inhibition constant, Ki.
Enzyme activity was determined using the chromogenic substrate Pefachrome t-PA (CH3 SO2 -D-hexahydrotyrosine-glycyl-L-arginine-p-nitroaniline), obtained from Pentapharm Ltd. The substrate was reconstituted in deionized water prior to use. Purified human alpha-thrombin (3000U/mg specific activity) was obtained from Enzyme Research Laboratories, Inc. The buffer used for all assays was HBSA (10 mM HEPES, pH 7.5, 150 mM sodium chloride, 0.1% bovine serum albumin).
Velocities of chromogenic substrate hydrolysis which occurred over 40 minutes was measured by the change in absorbance at 405 nm using a Thermo Max® Kinetic Microplate Reader.
Ki values were determined for test compounds using the relationships developed by Williams and Morrison, Methods in Enzymology, 63:437 (1979) using steady state velocities (Vs) measured over 40 minutes. The extent of substrate hydrolysis was less than 5% over the course of this assay.
Table 2 below gives the Ki values for selected test compounds.

Chain of Purified human plasmin (P00747 581-810 limits assumed): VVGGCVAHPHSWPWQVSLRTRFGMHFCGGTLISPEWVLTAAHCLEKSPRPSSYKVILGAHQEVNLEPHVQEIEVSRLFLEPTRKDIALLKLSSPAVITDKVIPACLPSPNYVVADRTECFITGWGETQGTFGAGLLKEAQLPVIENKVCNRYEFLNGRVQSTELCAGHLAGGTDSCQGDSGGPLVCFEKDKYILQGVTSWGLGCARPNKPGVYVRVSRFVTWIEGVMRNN
Chain of Purified human plasmin (P00747 97-580 limits assumed): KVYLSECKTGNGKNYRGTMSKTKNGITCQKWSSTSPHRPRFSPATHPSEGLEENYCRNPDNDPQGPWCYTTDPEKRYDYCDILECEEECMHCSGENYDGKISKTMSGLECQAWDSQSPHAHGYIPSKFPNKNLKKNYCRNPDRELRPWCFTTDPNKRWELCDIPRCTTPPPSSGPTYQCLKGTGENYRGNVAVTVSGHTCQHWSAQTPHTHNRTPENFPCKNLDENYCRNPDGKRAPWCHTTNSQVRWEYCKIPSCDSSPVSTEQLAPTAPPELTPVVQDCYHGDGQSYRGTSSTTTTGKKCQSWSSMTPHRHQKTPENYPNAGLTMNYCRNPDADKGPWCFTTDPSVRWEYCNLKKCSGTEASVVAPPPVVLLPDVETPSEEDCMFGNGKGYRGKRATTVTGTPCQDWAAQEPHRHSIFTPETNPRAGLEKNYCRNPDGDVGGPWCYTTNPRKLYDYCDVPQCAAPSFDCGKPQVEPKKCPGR

On to `CCCCS(=O)(=O)N[C@@H](CS(=O)(=O)CC(=O)O)C(=O)N1CCC[C@H]1C(=O)N[C@H](C=O)CCCNC(=N)N`, for which the IC50 (commonly the concentration at which inhibition is half-maximal) in assay [1] came out at 3 nM; in assay [2], 110 nM.
As for `N=C(N)NCCC[C@@H](C=O)NC(=O)[C@@H]1CCCN1C(=O)[C@H](CSCC(=O)O)NS(=O)(=O)Cc1ccccc1`, the IC50 came to 13 nM in assay [1] and 490 nM in assay [2].
On the same counts, the results for `COC(=O)c1ccccc1S(=O)(=O)N[C@@H](CCS(C)(=O)=O)C(=O)N1CCC[C@H]1C(=O)N[C@H](C=O)CCCNC(=N)N` [2-CMPhSO2 --Met[S(O2)]--Pro--Arg-al] are 0.81 nM and 200 nM.
Turning to `CC1CNc2c(cccc2S(=O)(=O)N[C@@H](CCCNC(=N)N)C(=O)N2CC[C@@H](C)C[C@@H]2C(=O)O)C1` (stereo partly drawn) [Argatroban, 2R,4R-4-methyl-1-[N-2-(3-methyl-1,2,3,4-tetrahydro-8-quinolinesulfonyl)-L-argininal]-2-piperdinecarboxylic acid, reference compound], the 50% effective dose (ED50) (as a rule, the midpoint of the dose-response relation) in assay [3] was determined as 3.8 mg/kg.
On to `CS(=O)(=O)CC[C@H](NS(=O)(=O)NC1CCCCC1)C(=O)N1CCC[C@H]1C(=O)N[C@H](C=O)CCCNC(=N)N` [ChxNH--SO2 --Met[S(O2)]--Pro--Arg-al], for which the IC50 stood at 146 nM in assay [1] and 2600 nM in assay [2].
For the compound `CCCCS(=O)(=O)N[C@@H](CCS(C)(=O)=O)C(=O)N1CCC[C@H]1C(=O)N[C@H](C=O)CCCNC(=N)N` [Example 11, N-(1-butanesulfonyl)-L-methioninesulfone-L-proline-L-argininal], the figures for the IC50 in assay [1] and in assay [2] were 1.6 nM and 199 nM, respectively.
On the same counts, the results for `CS(=O)(=O)CC[C@H](NS(=O)(=O)CC1CCCCC1)C(=O)N1CCC[C@H]1C(=O)N[C@H](C=O)CCCNC(=N)N` [Example 18, N-cyclohexylmethanesulfonyl-L-methionine sulfone-L-proline-L-argininal] are 0.66 nM and 30 nM.
For the compound `CS(=O)(=O)CC[C@H](NS(=O)(=O)c1cccc2ccccc12)C(=O)N1CCC[C@H]1C(=O)N[C@H](C=O)CCCNC(=N)N` [Example 21, N-(1-naphthylenesulfonyl)-L-methionine sulfone-L-proline-L-argininal], the half-maximal inhibitory concentration (IC50) was 0.78 nM in assay [1] and more than 25 nM in assay [2].
As for `CS(=O)(=O)CC[C@H](NS(=O)(=O)c1ccc2ccccc2c1)C(=O)N1CCC[C@H]1C(=O)N[C@H](C=O)CCCNC(=N)N` [Example 24, N-(2-naphthylenesulfonyl)-L-methionine sulfone-L-proline-L-argininal], the Ki (usually the equilibrium dissociation constant of an inhibitor or competing ligand from its target) in assay [4] stood at 0.135 nM. Moreover, the 50% inhibitory concentration (IC50) in assay [1] was determined as 0.58 nM; in assay [2], 35 nM.
For the compound `CCCC(CCC)C(=O)N[C@@H](CCS(C)(=O)=O)C(=O)N1CCC[C@H]1C(=O)N[C@H](C=O)CCCNC(=N)N` [Example 33, N-(2-propylpentanoyl)-L-methionine sulfone-L-proline-L-argininal], the inhibition constant (Ki) in assay [4] amounted to 4 nM. In addition, the IC50 worked out at 5.5 nM in assay [1] and 500 nM in assay [2].
With `CCCCS(=O)(=O)N[C@@H](CS(C)(=O)=O)C(=O)N1CCC[C@H]1C(=O)N[C@H](C=O)CCCNC(=N)N` [Example 40, N-(1-butanesulfonyl)-S-methyl-L-cysteine Sulfone-L-proline-L-argininal], the figures for the IC50 in assay [1] and in assay [2] were 1.8 nM and more than 250 nM, respectively.
Regarding `CCCC(CCC)C(=O)N[C@@H](CS(C)(=O)=O)C(=O)N1CCC[C@H]1C(=O)N[C@H](C=O)CCCNC(=N)N` [Example 43, N-(2-propylpentanoyl)-S-methyl-L-cysteine sulfone-L-proline-L-argininal], the IC50 in assay [1] worked out at 5.1 nM; in assay [2], 2800 nM.
`CS(=O)(=O)C[C@H](NS(=O)(=O)c1ccc2ccccc2c1)C(=O)N1CCC[C@H]1C(=O)N[C@H](C=O)CCCNC(=N)N` [Example 46, N-(2-naphthalenesulfonyl)-S-methyl-L-cysteine sulfone-L-proline-L-argininal]: the IC50 is 1.4 nM in assay [1] and more than 250 nM in assay [2].
Turning to `CS(=O)(=O)C[C@H](NS(=O)(=O)c1cccc2ccccc12)C(=O)N1CCC[C@H]1C(=O)N[C@H](C=O)CCCNC(=N)N` [Example 49, N-(1-naphthalenesulfonyl)-S-methyl-L-cysteine sulfone-L-proline-L-argininal], the IC50 was found to be 3.1 nM in assay [1] and 250 nM in assay [2].
In the same order, the values of `N=C(N)NCCC[C@@H](C=O)NC(=O)[C@@H]1CCCN1C(=O)[C@H](CS(=O)(=O)CC(=O)O)NS(=O)(=O)Cc1ccccc1` [Example 56, N-benzylsulfonyl-S-(carboxymethyl)-L-cysteine sulfone-L-proline-L-argininal] are 13 nM and 490 nM.
In the same order, the values of `CCCC(CCC)C(=O)N[C@@H](CS(=O)(=O)CC(=O)O)C(=O)N1CCC[C@H]1C(=O)N[C@H](C=O)CCCNC(=N)N` [Example 59, N-(2-propylpentanoyl)-S-(carboxymethyl)-L-cysteine sulfone-L-proline-L-argininal] are 1.6 nM and 220 nM.
As to `COC(=O)CS(=O)(=O)C[C@H](NS(=O)(=O)c1ccc2ccccc2c1)C(=O)N1CCC[C@H]1C(=O)N[C@H](C=O)CCCNC(=N)N` [Example 69, N-(2-naphthylenesulfonyl)-S-(methyl acetate)-L-cysteine sulfone-L-proline-L-argininal], the half-maximal inhibitory concentration (IC50) in assay [1] was found to be 0.56 nM; in assay [2], 61 nM.
`N=C(N)NCCC[C@@H](C=O)NC(=O)[C@@H]1CCCN1C(=O)[C@H](CS(=O)(=O)Cc1ccc(C(=O)O)cc1)NS(=O)(=O)Cc1ccccc1` [Example 139, N-benzylsulfonamide-L-cysteine-S-sulfone-(p-toluic acid) -L-proline-argininal aldehyde]: the IC50 in assay [1] was 1.7 nM; in assay [2], 250 to 2500 nM.
Regarding `CCCC(CCC)C(=O)N[C@@H](CS(=O)(=O)Cc1ccc(C(=O)O)cc1)C(=O)N1CCC[C@H]1C(=O)N[C@H](C=O)CCCNC(=N)N` [Example 144, N-2-propylpentylamide-L-cysteine-S-sulfone (p-toluic acid) -L-proline-arginal aldehyde], the IC50 is 0.742 nM in assay [1] and 388 nM in assay [2].
Turning to `CC1(C)[C@@H]2CC[C@@]1(CS(=O)(=O)N[C@@H](CCS(C)(=O)=O)C(=O)N1CCC[C@H]1C(=O)N[C@H](C=O)CCCNC(=N)N)C(=O)C2` [d-Camphor--SO2 --Met[S(O2)]--Pro--Arg-al], the IC50 in assay [1] came to 2.6 nM; in assay [2], 30 nM.
